Consider 30 compounds from ChEMBL document CHEMBL3112589, “Structure-activity relationships of diamine inhibitors of cytochrome P450 (CYP) 3A as novel pharmacoenhancers, part I: core region” (Bioorg Med Chem Lett, 2014).

The test system of test [1] is Human immunodeficiency virus 1. Briefly: Antiviral activity against HIV1 by cell based assay. In kind it is functional, organism-based.
Another test concerns the target Cytochrome P450 3A4 (Homo sapiens, UniProt P08684). Nature of the test: Inhibition of human CYP3A4-mediated midazolam 1'-hydroxylase activity.
A further test addresses Protease (Human immunodeficiency virus 1, UniProt Q9YQ12). Briefly: Inhibition of HIV-1 protease.
A further test concerns the target Cytochrome P450 2C9 (Homo sapiens, UniProt P11712). Nature of the test: Inhibition of human CYP2C9.
For another test, the target named is Cytochrome P450 2D6 (Homo sapiens, UniProt P10635). Nature of the test: Inhibition of human CYP2D6.
Chain of Cytochrome P450 2D6 (P10635 whole entry): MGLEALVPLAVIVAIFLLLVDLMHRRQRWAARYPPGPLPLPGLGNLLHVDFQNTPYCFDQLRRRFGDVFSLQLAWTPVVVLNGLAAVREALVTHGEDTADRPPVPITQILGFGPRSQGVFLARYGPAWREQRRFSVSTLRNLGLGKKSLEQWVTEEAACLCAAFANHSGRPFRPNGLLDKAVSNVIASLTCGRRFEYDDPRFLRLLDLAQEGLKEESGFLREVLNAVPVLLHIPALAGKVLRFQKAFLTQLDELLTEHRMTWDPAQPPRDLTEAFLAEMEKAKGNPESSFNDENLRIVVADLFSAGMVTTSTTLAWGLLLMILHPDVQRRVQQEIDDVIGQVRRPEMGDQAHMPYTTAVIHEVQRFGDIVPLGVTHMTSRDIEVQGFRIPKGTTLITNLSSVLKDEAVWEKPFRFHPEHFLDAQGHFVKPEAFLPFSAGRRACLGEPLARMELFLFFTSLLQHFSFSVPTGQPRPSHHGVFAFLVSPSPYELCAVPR
The target in the next test is T1, Cytochrome P450 1A2 (Homo sapiens, UniProt P05177).
T1 sequence (P05177 whole entry): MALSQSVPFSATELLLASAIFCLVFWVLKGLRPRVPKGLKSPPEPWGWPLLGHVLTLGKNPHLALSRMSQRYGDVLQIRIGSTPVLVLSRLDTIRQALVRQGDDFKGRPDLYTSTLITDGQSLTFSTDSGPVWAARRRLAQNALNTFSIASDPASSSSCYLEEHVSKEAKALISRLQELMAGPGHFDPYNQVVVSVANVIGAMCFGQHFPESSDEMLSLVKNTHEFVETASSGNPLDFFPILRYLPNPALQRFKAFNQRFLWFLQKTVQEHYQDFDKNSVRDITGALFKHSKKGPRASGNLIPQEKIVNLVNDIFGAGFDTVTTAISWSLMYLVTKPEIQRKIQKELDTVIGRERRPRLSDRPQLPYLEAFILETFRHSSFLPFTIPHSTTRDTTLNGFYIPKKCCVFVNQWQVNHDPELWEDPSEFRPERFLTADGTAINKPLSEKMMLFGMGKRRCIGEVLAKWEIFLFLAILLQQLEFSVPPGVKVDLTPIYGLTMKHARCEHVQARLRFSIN
Nature of the test: Inhibition of human CYP1A2.

A further test addresses Cytochrome P450 2C19 (Homo sapiens, UniProt P33261). Briefly: Inhibition of human CYP2C19.

Each structure is given as a SMILES string.

Chain of Cytochrome P450 2C9 (P11712 whole entry): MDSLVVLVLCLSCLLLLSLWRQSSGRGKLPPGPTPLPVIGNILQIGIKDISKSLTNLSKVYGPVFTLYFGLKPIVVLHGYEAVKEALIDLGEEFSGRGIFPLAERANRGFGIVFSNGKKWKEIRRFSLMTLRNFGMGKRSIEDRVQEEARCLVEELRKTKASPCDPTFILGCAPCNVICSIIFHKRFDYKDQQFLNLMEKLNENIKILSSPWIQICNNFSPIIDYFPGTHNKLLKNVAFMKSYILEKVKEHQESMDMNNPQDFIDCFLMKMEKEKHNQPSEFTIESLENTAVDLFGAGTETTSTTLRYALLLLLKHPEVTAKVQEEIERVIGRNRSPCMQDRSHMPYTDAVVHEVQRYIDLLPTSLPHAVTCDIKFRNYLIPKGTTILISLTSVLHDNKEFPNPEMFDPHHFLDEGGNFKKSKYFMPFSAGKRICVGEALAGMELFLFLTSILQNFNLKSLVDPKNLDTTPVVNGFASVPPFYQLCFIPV
Chain of Cytochrome P450 3A4 (P08684 whole entry): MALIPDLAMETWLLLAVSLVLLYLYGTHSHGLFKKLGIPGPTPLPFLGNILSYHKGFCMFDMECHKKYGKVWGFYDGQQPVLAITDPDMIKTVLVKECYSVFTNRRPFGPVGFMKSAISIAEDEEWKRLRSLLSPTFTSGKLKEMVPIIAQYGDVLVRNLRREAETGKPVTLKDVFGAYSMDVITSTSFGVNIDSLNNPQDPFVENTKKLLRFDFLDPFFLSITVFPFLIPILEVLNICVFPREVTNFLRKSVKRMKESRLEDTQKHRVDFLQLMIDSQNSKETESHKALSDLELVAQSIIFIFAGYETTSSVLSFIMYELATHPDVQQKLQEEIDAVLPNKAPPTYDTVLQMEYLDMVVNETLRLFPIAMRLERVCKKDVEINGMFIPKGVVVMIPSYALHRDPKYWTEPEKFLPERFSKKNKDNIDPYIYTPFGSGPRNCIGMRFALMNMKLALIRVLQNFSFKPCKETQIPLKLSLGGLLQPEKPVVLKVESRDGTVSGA
Chain of Cytochrome P450 2C19 (P33261 whole entry): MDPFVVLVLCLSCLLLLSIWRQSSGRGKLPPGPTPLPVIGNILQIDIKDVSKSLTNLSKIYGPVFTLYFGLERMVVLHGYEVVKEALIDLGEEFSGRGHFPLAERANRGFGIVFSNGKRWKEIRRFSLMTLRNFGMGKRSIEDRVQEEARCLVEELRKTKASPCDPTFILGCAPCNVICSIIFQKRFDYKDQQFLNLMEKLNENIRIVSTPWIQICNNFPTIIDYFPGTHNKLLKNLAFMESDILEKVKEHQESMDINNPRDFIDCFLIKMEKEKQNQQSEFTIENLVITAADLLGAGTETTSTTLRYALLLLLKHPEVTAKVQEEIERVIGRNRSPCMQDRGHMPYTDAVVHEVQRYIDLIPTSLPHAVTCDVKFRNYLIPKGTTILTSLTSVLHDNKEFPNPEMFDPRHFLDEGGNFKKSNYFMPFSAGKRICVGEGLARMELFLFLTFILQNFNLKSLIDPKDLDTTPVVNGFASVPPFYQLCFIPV
Chain of Protease (Q9YQ12 whole entry): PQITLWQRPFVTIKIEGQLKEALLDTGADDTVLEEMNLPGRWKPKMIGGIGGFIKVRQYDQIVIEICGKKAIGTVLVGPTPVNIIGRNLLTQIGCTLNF

In general, EC50 refers to the midpoint of the concentration-response curve. Lower therefore signals higher potency in that assay. A word on the IC50: it is the concentration needed to halve the response being measured. A low value points to higher potency. Turning to `CC(C)c1nc(CN(C)C(=O)N[C@H](C(=O)NC2CCN(C(=O)OCc3cncs3)CC2)C(C)C)cs1`, it took 9 µM to reach a half-maximal effect in test [1] (EC50). The same compound returned an IC50 on Cytochrome P450 3A4 of 1.67 µM.

`CC(C)c1nc(CN(C)C(=O)N[C@H](C(=O)N[C@H](CC[C@H](Cc2ccccc2)NC(=O)OCc2cncs2)Cc2ccccc2)C(C)C)cs1`: the IC50 on Protease is 0.005 µM; at Cytochrome P450 2C9, 6.8 µM; against Cytochrome P450 2D6 it was 2.9 µM; at Cytochrome P450 1A2, > 25 µM; against Cytochrome P450 2C19, 9.3 µM. The same compound gave an EC50 in test [1] of 0.29 µM.

`CC(C)c1nc(CN(C)C(=O)N[C@H](C(=O)N[C@H](CC(=O)[C@H](Cc2ccccc2)NC(=O)OCc2cncs2)Cc2ccccc2)C(C)C)cs1` gave an EC50 in test [1] of 1.65 µM.

The compound `CC(C)c1nc(CN(C)C(=O)N[C@H](C(=O)N[C@H](/C=C/[C@H](Cc2ccccc2)NC(=O)OCc2cncs2)Cc2ccccc2)C(C)C)cs1` displayed an EC50 in test [1] of 11 µM. Besides, on Cytochrome P450 3A4, 0.15 µM corresponded to half-maximal inhibition (IC50).

In turn, `CC(C)c1nc(CN(C)C(=O)N[C@H](C(=O)N[C@H](CC[C@H](Cc2ccccc2)N(C)C(=O)OCc2cncs2)Cc2ccccc2)C(C)C)cs1` gave an EC50 in test [1] of 0.87 µM.

The compound `CCC[C@@H](CC[C@H](Cc1ccccc1)NC(=O)[C@@H](NC(=O)N(C)Cc1csc(C(C)C)n1)C(C)C)NC(=O)OCc1cncs1` returned an EC50 in test [1] of 1.7 µM.

In turn, `CCC[C@@H](CC[C@H](Cc1ccccc1)NC(=O)OCc1cncs1)NC(=O)[C@@H](NC(=O)N(C)Cc1csc(C(C)C)n1)C(C)C` displayed a concentration for a half-maximal effect (EC50) in test [1] of 0.55 µM.

In the case of `CC[C@@H](CC[C@H](CC)NC(=O)[C@@H](NC(=O)N(C)Cc1csc(C(C)C)n1)C(C)C)NC(=O)OCc1cncs1`, the IC50 against Protease was > 30 µM. Moreover, the half-maximal effective concentration (EC50) in test [1] was > 30 µM.

`CC(C)c1nc(CN(C)C(=O)N[C@H](C(=O)N[C@@H](C)CC[C@H](C)NC(=O)OCc2cncs2)C(C)C)cs1`: the IC50 against Protease is > 30 µM. Also, the EC50 in test [1] was > 30 µM.

Regarding `CC(C)c1nc(CN(C)C(=O)N[C@H](C(=O)N[C@@H](Cc2ccccc2)[C@H]2OC(C)(C)O[C@@H]2[C@H](Cc2ccccc2)NC(=O)OCc2cncs2)C(C)C)cs1`, the concentration for a half-maximal effect (EC50) in test [1] is > 30 µM. This compound showed an IC50 on Cytochrome P450 3A4 of 0.31 µM.

With `CC(C)c1nc(CN(C)C(=O)N[C@H](C(=O)N[C@@H](CC[C@@H](Cc2ccccc2)NC(=O)OCc2cncs2)Cc2ccccc2)C(C)C)cs1`, the half-inhibitory concentration (IC50) is > 30 µM on Protease; 13.8 µM on Cytochrome P450 2C9; 0.4 µM against Cytochrome P450 2D6; 10 µM against Cytochrome P450 1A2; > 5 µM on Cytochrome P450 2C19. Besides, the EC50 in test [1] was > 30 µM.

`CC(C)c1nc(CN(C)C(=O)N[C@H](C(=O)NCCCCNC(=O)OCc2cncs2)C(C)C)cs1`: the EC50 in test [1] was > 30 µM.

Regarding `CC(C)c1nc(CN(C)C(=O)N[C@H](C(=O)N(CCCCN(Cc2ccccc2)C(=O)OCc2cncs2)Cc2ccccc2)C(C)C)cs1`, the IC50 is 22.7 µM against Protease; 3.4 µM against Cytochrome P450 2C9; 1.1 µM against Cytochrome P450 2D6; > 25 µM on Cytochrome P450 1A2; 1.5 µM against Cytochrome P450 2C19; 0.24 µM on Cytochrome P450 3A4. In test [1], the concentration giving a half-maximal response (EC50) was > 30 µM.

In the case of `CC(C)c1nc(CN(C)C(=O)N[C@H](C(=O)N[C@H](CCNNC(=O)OCc2cncs2)Cc2ccccc2)C(C)C)cs1`, on Protease, the IC50 is 8.8 µM. Further, the EC50 in test [1] is > 30 µM.

Turning to `CC(C)c1nc(CN(C)C(=O)N[C@H](C(=O)N[C@H](CCN(Cc2ccccc2)NC(=O)OCc2cncs2)Cc2ccccc2)C(C)C)cs1`, it took 0.03 µM to reach half-maximal inhibition at Protease (IC50). The midpoint of the response in test [1], the EC50, lay at 0.38 µM.

On to `CC(C)c1nc(CN(C)C(=O)N[C@H](C(=O)NCCCNC(=O)OCc2cncs2)C(C)C)cs1`, for which the EC50 in test [1] was > 30 µM.

In test [1], `CC(C)c1nc(CN(C)C(=O)N[C@H](C(=O)N2CCC(NC(=O)OCc3cncs3)CC2)C(C)C)cs1` had an EC50 of 4 µM.

Regarding `CC(C)c1nc(CN(C)C(=O)N[C@H](C(=O)N(CCCN(Cc2ccccc2)C(=O)OCc2cncs2)Cc2ccccc2)C(C)C)cs1`, the IC50 against Protease came to 21 µM; against Cytochrome P450 3A4 it was 0.3 µM. Also, the EC50 in test [1] is > 30 µM.

`CC(C)c1nc(CN(C)C(=O)N[C@H](C(=O)N[C@H](CCN(Cc2ccccc2)C(=O)OCc2cncs2)Cc2ccccc2)C(C)C)cs1`: the IC50 at Cytochrome P450 2C9 was > 25 µM; against Cytochrome P450 2D6 it was 0.9 µM; at Cytochrome P450 1A2, > 25 µM; against Cytochrome P450 2C19, > 25 µM; against Cytochrome P450 3A4, 0.32 µM. The EC50 in test [1] is > 30 µM.

For `CC(C)c1nc(CN(C)C(=O)N[C@@H](CCN2CCOCC2)C(=O)N[C@H](CCN(Cc2ccccc2)C(=O)OCc2cncs2)Cc2ccccc2)cs1`, the IC50 at Protease was > 30 µM; on Cytochrome P450 2C9 it was 8.1 µM; at Cytochrome P450 2D6, 1.3 µM; on Cytochrome P450 1A2, > 25 µM; against Cytochrome P450 2C19, 6.7 µM. For the same compound, the EC50 in test [1] was > 30 µM.

Consider `CC(C)c1nc(CN(C)C(=O)N[C@@H](CCN2CCOCC2)C(=O)N[C@H](CCN(Cc2ccc(Cl)cc2)C(=O)OCc2cncs2)Cc2ccccc2)cs1`, for which the IC50 at Protease is > 30 µM. For the same compound, in test [1], the EC50 is > 30 µM.

With `CC(C)c1nc(CN(C)C(=O)N[C@@H](CCN2CCOCC2)C(=O)N[C@H](CCN(Cc2ccccc2Cl)C(=O)OCc2cncs2)Cc2ccccc2)cs1`, the IC50 on Protease was > 30 µM. Further, the EC50 in test [1] was > 30 µM.

Consider `CC(C)CN(CC[C@H](Cc1ccccc1)NC(=O)[C@H](CCN1CCOCC1)NC(=O)N(C)Cc1csc(C(C)C)n1)C(=O)OCc1cncs1`, for which the half-inhibitory concentration (IC50) against Protease was > 30 µM. For the same compound, the EC50 in test [1] was > 30 µM.

In the case of `CC(C)CN(CC[C@H](Cc1ccccc1)NC(=O)OCc1cncs1)C(=O)[C@H](CCN1CCOCC1)NC(=O)N(C)Cc1csc(C(C)C)n1`, the IC50 against Protease was > 30 µM; at Cytochrome P450 2C9 it was > 25 µM; against Cytochrome P450 2D6, 8.1 µM; on Cytochrome P450 1A2, > 25 µM; against Cytochrome P450 2C19 it was > 25 µM. Moreover, in test [1], the 50% effective concentration (EC50) is > 30 µM.

Regarding `CC(C)c1nc(CN(C)C(=O)N[C@H](C(=O)NCCNC(=O)OCc2cncs2)C(C)C)cs1`, the EC50 in test [1] was > 30 µM.

Take `CC(C)c1nc(CN(C)C(=O)N[C@H](C(=O)N2CCN(C(=O)OCc3cncs3)CC2)C(C)C)cs1`: in test [1], the EC50 was > 30 µM. Further, the 50% inhibitory concentration (IC50) at Cytochrome P450 3A4 turned out to be 1.4 µM.

For the compound `CC(C)c1nc(CN(C)C(=O)N[C@H](C(=O)N[C@@H](Cc2ccccc2)[C@H](Cc2ccccc2)NC(=O)OCc2cncs2)C(C)C)cs1`, the half-maximal inhibitory concentration (IC50) against Protease was > 30 µM; on Cytochrome P450 2C9, > 25 µM; on Cytochrome P450 2D6, 2.3 µM; against Cytochrome P450 1A2, 22.9 µM; at Cytochrome P450 2C19, 8.7 µM. The EC50 in test [1] is > 30 µM.

Turning to `CC(C)c1nc(CN(C)C(=O)N[C@@H](CCN2CCOCC2)C(=O)NC(Cc2ccccc2)CN(Cc2ccccc2)C(=O)OCc2cncs2)cs1` (stereo not given in full), the IC50 at Protease was > 30 µM. Moreover, in test [1], the EC50 is > 30 µM.

For `CC(C)c1nc(CN(C)C(=O)N[C@H](C(=O)N(C)[C@H](CC[C@H](Cc2ccccc2)NC(=O)OCc2cncs2)Cc2ccccc2)C(C)C)cs1`, in test [1], a half-maximal response (EC50) required 0.73 µM.

In test [1], `CC(C)c1nc(CN(C)C(=O)N[C@H](C(=O)N[C@@H](Cc2ccccc2)C[C@H](O)[C@H](Cc2ccccc2)NC(=O)OCc2cncs2)C(C)C)cs1` [RITONAVIR] registered an EC50 of 0.015 µM.
